Data: PubChem BioAssay AID1626 (SRMLSC, 2009)

System: M. tuberculosis H37Rv growth inhibition
Assay: M. tuberculosis H37Rv growth inhibitors, H37Rv strain (AID 1626)
Settings: for IC90: measured here: IC90 against H37Rv; for CC50: measured here: Vero cell cytotoxicity

## Cc1ccc(-c2nc3c(cnn3-c3ccccc3)c(=O)o2)cc1
  IC50: 6.21 µM
  IC90: 13.4 µM

## Cc1cc(C)n(-c2nc(SCC(=O)O)c3c4c(sc3n2)COC(C)(C)C4)n1
  IC50: 9.72 µM
  IC90: > 100 µM
  CC50: > 40 µM

## c1nc2n(n1)C1=C(CCCC1)C1(CCCCC1)N2
  IC50: 18.2 µM
  IC90: > 100 µM

## O=C(CN1CCC(C(=O)c2ccc3c(c2)OCCO3)CC1)NC1CCCC1
  CC50: > 40 µM

## CCCCCCC(=O)Nc1nc(C)c(-c2csc(Nc3ccccc3OC)n2)s1
  IC50: 5.48 µM
  IC90: 9.63 µM
  CC50: > 40 µM

## CN1CCN(c2ccccc2NC(=O)c2ccc(-c3ccc(Cl)cc3Cl)o2)CC1
  IC50: 65.2 µM
  IC90: 82.8 µM
  CC50: > 40 µM

## COc1ccc(-c2nc(Cn3c(SCc4ccc(C)cc4)nc4ccncc43)c(C)o2)cc1OC
  IC50: 6.52 µM
  IC90: > 100 µM
  CC50: > 40 µM

## COc1ccc(N2C(=O)NC(=O)/C(=C/c3cccc(OC(=O)c4cccs4)c3)C2=O)cc1Cl
  IC50: 5.35 µM
  IC90: 17.5 µM

## CCOC(=O)c1ccc(NC(=O)c2cc3ccccc3o2)cc1
  IC50: 4.67 µM
  IC90: > 100 µM

## N#Cc1ccc(-c2ccccc2)nc1SCC(=O)c1cc2ccccc2oc1=O
  IC50: 1.64 µM
  IC90: 2.16 µM
  CC50: > 40 µM

## O=C(NCCN1CCOCC1)c1ccc([N+](=O)[O-])cc1[N+](=O)[O-]
  IC50: 2.11 µM
  IC90: 3.4 µM

## O=C(Nc1nnc(-c2ccc(F)cc2)o1)c1cccc([N+](=O)[O-])c1
  IC50: 5.68 µM
  IC90: 14.8 µM
  CC50: 12.4 µM

## COc1ccc(-c2n(CC(=O)OC3CC(C)CCC3C(C)C)c3ccccc3[n+]2C)cc1 (configuration not stated)
  IC50: 0.985 µM
  IC90: 2.37 µM
  CC50: 23.9 µM

## Nc1ccccc1Nc1cc(-c2ccccc2)[nH]n1
  IC90: > 100 µM

## CCC(=Nc1ccccc1O)C1=C(O)CC(c2ccccc2)CC1=O (configuration not stated)
  IC50: 1.51 µM
  IC90: 1.72 µM
  CC50: > 40 µM

## COc1ccc(C2CC(=O)C3=C(C2)NC(C)=C(C#N)C3c2ccc(N(C)C)cc2)cc1 (configuration not stated)
  IC50: 12.5 µM
  IC90: 21.9 µM

## Cc1cccc(NC(=O)c2ccc([N+](=O)[O-])o2)c1C
  IC50: 12.2 µM
  IC90: 23.9 µM
  CC50: 11.5 µM

## O=C(CCN1C(=O)C2CCCCC2C1=O)Nc1nc(-c2ccc(F)c(F)c2)cs1 (configuration not stated)
  IC50: 47.5 µM
  IC90: > 100 µM

## CSc1ccc(/C=C/C(=O)c2ccc(O)cc2)cc1
  IC50: 9.87 µM
  IC90: 13.7 µM
  CC50: 30.7 µM

## Cc1cc(OCc2nnc(SCC(=O)OC3CCCCC3)o2)ccc1Cl
  IC50: 0.372 µM
  IC90: 2.57 µM

## Nc1cc2nc3ccccc3oc-2cc1=O
  IC50: 0.368 µM
  IC90: 0.916 µM
  CC50: > 40 µM

## CCCCOC(=O)Cn1c(-c2ccccc2)nc2ccccc2c1=O
  IC50: 7.75 µM
  IC90: 18.5 µM

## COc1cc(/C=C/c2ccc3c(Br)cc(Br)c(O)c3n2)ccc1O
  IC50: < 0.195 µM
  IC90: 0.345 µM
  CC50: 14.5 µM

## Cc1ccc2nc(-c3ccccn3)c(Nc3ccccc3C)n2c1
  IC50: 1.52 µM
  IC90: 2.24 µM
  CC50: 3.42 µM

## O=S1(=O)CCC(N=Cc2ccc(-c3ccc(Cl)cc3)o2)C1 (configuration not stated)
  IC50: 6.54 µM
  IC90: > 100 µM

## COc1ccc(CNCc2cc3c(C(C)(C)C)nn(-c4ccccc4)c3[nH]c2=O)cc1
  IC50: 11.4 µM
  IC90: 13 µM
  CC50: > 40 µM

## O=C1CC(/C=C/c2ccc(Cl)cc2)=Nc2ccccc2N1
  IC50: 6.69 µM
  IC90: > 100 µM
  CC50: 38.6 µM

## CCOCCOC(=O)COc1ccc2c(-c3ccccc3)cc(=O)oc2c1
  IC50: 1.28 µM
  IC90: 4.32 µM

## COc1ccc(NC(=O)CN(C)CC(=O)Nc2ccc3c(c2)CCC3)cc1
  IC50: 20.6 µM
  IC90: > 100 µM

## CCN(CC)CCn1c(NC(=O)c2ccc(C(F)(F)F)cc2)nc2ccccc21
  CC50: > 40 µM

## Cc1cc(C)cc(OCc2nnc(SCC(=O)OC(C)C)o2)c1
  IC90: > 100 µM

## COc1cc(CNCCc2c[nH]c3ccccc23)ccc1OCc1ccccc1F
  IC50: 14 µM
  IC90: 21.3 µM
  CC50: 15.1 µM

## CCN(CC)CCOC(=O)c1ccc(N/C=C(/C#N)c2nc(-c3ccc(OC)c(OC)c3)cs2)cc1
  IC50: 4.16 µM
  IC90: 22.1 µM
  CC50: > 40 µM

## CC1CCC(C(C)C)C(OC(=O)Cn2c(-c3ccc(F)cc3)[n+](C)c3ccccc32)C1 (configuration not stated)
  IC50: 6.98 µM
  IC90: 11.4 µM

## Cc1cc(-n2c(C)cc(C(=O)COc3ccc4ccc(=O)oc4c3)c2C)no1
  IC50: 8.15 µM
  IC90: > 100 µM
  CC50: > 40 µM

## CC(C)[C@H](NC(=O)c1ccccc1Cl)C(=O)Nc1nc(-c2ccccn2)cs1
  IC50: 7.72 µM
  IC90: > 100 µM
  CC50: 9.39 µM

## O=C1OC(/C(=C\Nc2cc(Cl)ccc2O)[N+](=O)[O-])c2ccccc21 (configuration not stated)
  IC50: 57.2 µM
  IC90: > 100 µM
  CC50: > 40 µM

## CCOc1ccc(CN(C)C(=O)CCl)cc1
  IC50: 26.7 µM
  IC90: > 100 µM
  CC50: 12.7 µM

## COc1ccc(N=CC2=C(O)CCCC2=O)cc1
  IC50: 45 µM
  IC90: > 100 µM

## O=C(c1ccc(COc2ccc(Cl)cc2)o1)N1CCN(Cc2ccc3c(c2)OCO3)CC1
  IC50: 10.8 µM
  IC90: 21.9 µM
  CC50: > 40 µM

## O=C(Nc1nc(-c2ccccn2)cs1)c1ccc(Br)s1
  IC50: < 0.195 µM
  IC90: 0.585 µM
  CC50: 2.73 µM

## O=C1CC(=C(c2ccccc2)c2ccccc2)C(=O)N1CCCCN1CCN(c2cccc(Cl)c2)CC1
  IC50: 4.47 µM
  IC90: 6.35 µM
  CC50: > 40 µM

## Cc1sc2nc[nH]c(=S)c2c1-c1ccccc1
  IC50: 32.3 µM
  IC90: > 100 µM
  CC50: > 40 µM

## COc1ccc(N=C2CCS(=O)(=O)c3sccc32)cc1
  IC50: 54.3 µM
  IC90: > 100 µM

## CCOc1ccc(NCc2ccccc2OCc2cccc(F)c2)cc1
  IC50: 8.84 µM
  IC90: > 100 µM

## CCn1nnc(NC(=O)c2ccc(-c3ccc(Cl)cc3)o2)n1
  IC50: 19.8 µM
  IC90: > 100 µM

## O=C(COc1ccccc1[N+](=O)[O-])c1ccccc1
  IC50: 17 µM
  IC90: > 100 µM
  CC50: 30 µM

## Cc1cccc(C)c1OCC(=O)Nc1cccc(-c2nnc(-c3ccccc3)o2)c1
  IC50: 10.7 µM
  IC90: > 100 µM
  CC50: > 40 µM

## Nc1nc(CCOc2ccc(F)cc2)cs1
  IC50: 22.4 µM
  IC90: > 100 µM

## O=C(CNC(=O)/C(=C/c1ccccc1)NC(=O)c1ccc(Br)cc1)OCc1ccccc1
  IC50: 4.09 µM
  IC90: 6.63 µM
  CC50: 15.3 µM

## O=C(Nc1ccc(CSc2ccccc2)cc1)c1ccc(CN2CCOCC2)cc1
  IC50: 32.2 µM
  IC90: > 100 µM
  CC50: > 40 µM

## COC(=O)c1cc(Sc2cccc(Cl)c2Cl)ccn1
  IC50: 11.4 µM
  IC90: 17 µM

## C=CCOC(=O)C(C#N)c1nc2ccccc2nc1N1CCN(Cc2ccc3c(c2)OCO3)CC1 (configuration not stated)
  IC50: 5.44 µM
  IC90: 6.17 µM
  CC50: > 40 µM

## Cc1ccc(-c2nc(C(Cl)Cl)c3ccccc3n2)cc1
  IC50: 4.4 µM
  IC90: 12.1 µM
  CC50: 0.923 µM

## CCOC(=O)Cn1c(-c2ccccc2)ccc(C#N)c1=O
  IC50: 4 µM
  IC90: > 100 µM

## O=c1c2cc(Cl)ccc2oc2nc3n(c(=O)c12)CCCS3
  IC50: 0.803 µM
  IC90: 8.71 µM

## CC(C)Oc1ccc(C(=O)Nc2ccc(Cl)c(S(=O)(=O)Nc3ccc(Cl)cc3)c2)cc1
  IC50: 11.6 µM
  IC90: 22.4 µM
  CC50: 28.9 µM

## O=C(COC(=O)c1c2c(nc3ccccc13)/C(=C/c1cccc([N+](=O)[O-])c1)CCC2)NC1CCS(=O)(=O)C1 (configuration not stated)
  IC50: 6.99 µM
  IC90: > 100 µM
  CC50: 34 µM

## c1cnc2c(c1)ccc1cccnc12
  IC50: 4.46 µM
  IC90: 8.17 µM
  CC50: 3.98 µM

## CCOC(=O)c1ccc(NC(=O)CCc2nc(-c3ccc(C)cc3)no2)cc1
  IC50: 1.36 µM
  IC90: 12.4 µM
  CC50: > 40 µM

## O=C(OCc1cccc2ccccc12)c1ccc2c(=O)[nH]c(CN3CCOCC3)nc2c1
  IC50: 0.478 µM
  IC90: > 100 µM
  CC50: > 40 µM

## Clc1ccc(COC(Cn2ccnc2)c2ccc(Cl)cc2Cl)c(Cl)c1 (configuration not stated)
  IC50: 2.85 µM
  IC90: 3.27 µM
  CC50: 36.8 µM

## O=C(NC(Nc1nc2ccc([N+](=O)[O-])cc2s1)(C(F)(F)F)C(F)(F)F)c1ccccc1Cl
  IC50: 2.17 µM
  IC90: 4.17 µM
  CC50: 1 µM

## CCn1c(/C=C/c2ccc([N+](=O)[O-])o2)nc2ccccc2c1=O
  IC50: < 0.195 µM
  IC90: 0.383 µM
  CC50: 15.6 µM

## COc1ccc(-c2csc(NC(C)c3nc4cc(Cl)c(N5CCCCC5)cc4n3CCCO)n2)cc1 (configuration not stated)
  IC50: 12.7 µM
  IC90: > 100 µM
  CC50: > 40 µM

## COc1ccc(/C=C2\COc3ccccc3C2=O)cc1OC
  IC50: 9.44 µM
  IC90: 14.6 µM
  CC50: 29.2 µM

## CNC(=O)c1csc(-c2ccc(Cl)cc2)n1
  IC50: 38.6 µM
  IC90: > 100 µM

## Cc1nc(SCc2ccc(F)cc2)c2oc3ccccc3c2n1
  IC50: < 0.195 µM
  IC90: > 100 µM

## CCOC(=O)c1ccc(NC(=O)CCc2ccc(CC)o2)cc1
  IC50: 2.25 µM
  IC90: 17.2 µM

## O=C1/C(=C/c2ccccc2[N+](=O)[O-])COc2ccccc21
  IC50: 2.9 µM
  IC90: 3.25 µM
  CC50: 5.95 µM

## C(=C\c1nc(N2CCCC2)c2ccccc2n1)/c1ccccc1
  IC50: 5.33 µM
  IC90: 7.91 µM
  CC50: > 40 µM

## Oc1ccc(Cl)cc1N=Cc1sc2ccccc2c1Cl
  IC50: 6.53 µM
  IC90: 66.7 µM
  CC50: > 40 µM

## Fc1ccc(C(OCCN2CCN(CCCc3ccccc3)CC2)c2ccc(F)cc2)cc1
  IC50: 4.22 µM
  IC90: 5.59 µM
  CC50: 19.2 µM

## CC(C)c1cc(NC(=O)CCl)on1
  IC50: 13.7 µM
  IC90: 32.6 µM
  CC50: 16.7 µM

## OC(CNCC(c1ccc(Cl)cc1Cl)c1c[nH]c2ccccc12)c1ccccc1 (configuration not stated)
  IC50: 6.68 µM
  IC90: 10.3 µM
  CC50: 11.2 µM

## Cc1ccc(NC(=O)c2nc[nH]c2C(=O)N[C@@H](C)c2ccccc2)cc1
  IC50: 2.16 µM
  IC90: 6.42 µM
  CC50: > 40 µM

## CCc1nc2sc3ccccc3c(=O)c2c(=O)n1Cc1ccc(OC)cc1
  IC50: 6.25 µM
  IC90: 8.28 µM
  CC50: > 40 µM

## Cc1nc2ncccn2c1-c1csc(Nc2ccc(N(C)C)cc2)n1
  IC50: 12.8 µM
  IC90: 16 µM
  CC50: 3.47 µM

## CCCCCCn1c(=O)c(C(=O)Nc2nnc(C)s2)c(O)c2ccccc21
  IC50: 4.65 µM
  IC90: 6 µM
  CC50: > 40 µM

## CCC(=O)Nc1ccc2ccccc2c1
  IC50: 46.5 µM
  IC90: > 100 µM
